In one series the target is T1, hGSTA4-4 (Homo sapiens, UniProt O15217).
T1 sequence (O15217 1-222): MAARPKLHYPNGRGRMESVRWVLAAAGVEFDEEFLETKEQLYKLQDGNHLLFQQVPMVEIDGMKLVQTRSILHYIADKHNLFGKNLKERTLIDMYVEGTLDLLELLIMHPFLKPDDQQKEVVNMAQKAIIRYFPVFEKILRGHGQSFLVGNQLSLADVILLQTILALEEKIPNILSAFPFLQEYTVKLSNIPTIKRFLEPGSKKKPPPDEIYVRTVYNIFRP
Kind of series: hGSTA4-4 enzyme inhibition assay (CDNB-GSH conjugation, 340 nm). The settings on record: for inhibition at 100 µM: read-out: Enzyme Inhibition (%), hGSTA4-4, compound at 100 μM, mean of three experiments; for Enzyme Inhibition (%): hGSTA4-4, compound at 100 μM, mean of three experiments, 100 µM.

The subject of series [1] is U-87 MG cells. The settings on record: cited from earlier work.
The subject of series [2] is U-251 MG cells. Briefly: TMZ sensitization experiment, MTT assay, U-251 MG. It is filed as cell-based, human. Here is the method: Cell cultures were maintained in flasks and grown at 37 °C in a humidified atmosphere of 5% CO2. […] Cells were seeded in 96-well plates (8 × 10^3 cells/well in 100 μL culture medium) and grown overnight at 37 °C in a 5% CO2 incubator. Exponentially growing cells were incubated for 48 h with various concentrations ranging between 10^−3 and 10^−8 M of each compound. The final DMSO concentration never exceeded 0.2%. The medium was then removed and replaced with 100 μL MTT solution (1 mg/mL). After 4 h incubation, the solution was aspirated, formazan crystals were solubilized in 100 μL DMSO, and the absorbance was recorded at 540 nm (Tecan well plate reader). The same procedure was followed for the TMZ sensitization experiments. […] Data were analyzed using the GraphPad Prism 5.0 software.

In series [3] the test system is U-87 MG cells. Kind of series: In vitro cytotoxicity, MTT assay, U-87 MG. The settings on record: 48 h. The class given is cell-based, human. Here is the method:
(§1) U-251 and U-87 MG cells were grown in Dulbecco’s modified Eagle’s growth medium (pH 7.4) supplemented with 10% FBS, 100 U/mL penicillin, 2 mM glutamine, and 100 μg/mL streptomycin. Cell cultures were maintained in flasks and grown at 37 °C in a humidified atmosphere of 5% CO2. Subconfluent cells were detached using 0.05% (w/v) trypsin−0.25% (w/v) ethylenediaminetetraacetic acid solution at a subcultivation ratio of 1:2 to 1:5. […] Cells were seeded in 96-well plates (8 × 10^3 cells/well in 100 μL culture medium) and grown overnight at 37 °C in a 5% CO2 incubator. Exponentially growing cells were incubated for 48 h with various concentrations ranging between 10^−3 and 10^−8 M of each compound. The final DMSO concentration never exceeded 0.2%. The medium was then removed and replaced with 100 μL MTT solution (1 mg/mL). After 4 h incubation, the solution was aspirated, formazan crystals were solubilized in 100 μL DMSO, and the absorbance was recorded at 540 nm (Tecan well plate reader). The same procedure was followed for the TMZ sensitization experiments. […] Data were analyzed using the GraphPad Prism 5.0 software.
A general note: Tetrazolium dyes change colour on reduction, which living cells bring about.

A short description of series [4]: In vitro cytotoxicity, MTT assay, U-87 MG. The settings on record: human, U-87 MG cells, pH 7.4, U-87 MG cells. It is filed as cell-based, human. Here is the method: as §1
Series [5] has as its system U-251 MG cells. Kind of series: In vitro cytotoxicity, MTT assay, U-251 MG. The settings on record: 48 h. It is filed as cell-based, human. The procedure: as §1
Series [6] in a line: In vitro cytotoxicity, MTT assay, U-251 MG. It is filed as cell-based, human. The settings on record: human, U-251 MG cells, pH 7.4, U-251 MG cells. The procedure: as §1
In a further series the target is hGSTP1-1. Details: method as in PMID 36670925. The settings on record: cited from earlier work; for Ki: read-out: inhibition constant Ki.

Results on 23 compounds are retold here after article PMC10974579, “A Monocarbonyl Curcuminoid Derivative Inhibits the Activity of Human Glutathione Transferase A4-4 and Chemosensitizes Glioblastoma Cells to Temozolomide” (Pharmaceuticals, 2024).

Where two headings read alike, the source gives them in different places. A value given as a limit tells only on which side of the number the result lay.

Method for hGSTA4-4: hGSTA4-4 activity was determined by monitoring (at 25 °C) the formation of the conjugate between CDNB and GSH at 340 nm (ε = 9600 L·mol^−1·cm^−1) for 120 s, as previously described [58]. One unit of enzyme activity is defined as the amount of enzyme that produces 1.0 μmol of product per minute under the assay conditions. The tested natural products and monocarbonyl curcumin derivatives were dissolved in DMSO (100 μΜ) and added to the assay mixture (the volume of DMSO was maintained at a 2% v/v final concentration). Initial velocities were determined in triplicates and were corrected for spontaneous reaction rates, when necessary. […] The IC50 values were determined from a graph of the remaining enzyme activity (%) against inhibitor concentration. The computer program GraphPad Prism version 8 (GraphPad Prism Software, Inc., Boston, MA, USA) was used for producing kinetic graphs and determining apparent kinetic parameters/constants and IC50 values.

Regarding `COc1ccc(/C=C2\CCC/C(=C\c3ccc(OC)c(OC)c3)C2=O)cc1OC` [DM57], at hGSTA4-4, the inhibition (commonly the drop in the measured response relative to a control, in per cent) at 100 µM was 55.7%.
As for `COc1cc2c(c(OC)c1OC)-c1ccc(OC)c(=O)cc1[C@@H](NC(C)=O)CC2` [Colchicine], at hGSTA4-4, the “Enzyme Inhibition (%)” value is listed as 17.1% and the inhibition at 100 µM was found to be 17%.
On to `O=C(/C=C/c1ccc(F)cc1)/C=C/c1ccc(F)cc1` [DM109], for which the inhibition at 100 µM at hGSTA4-4 was found to be 73.9%.
With `COc1cc(/C=C/C(=O)/C=C/c2ccc(O)c(OC)c2)ccc1O` [DM101], on hGSTA4-4, the IC50 (in general, the concentration at which inhibition is half-maximal) is 12.7 ± 1.1 µM; the “Enzyme Inhibition (%)” value was 94.1%; the inhibition at 100 µM is greater than 90%.
Regarding `O=c1oc2c(O)c(O)cc3c(=O)oc4c(O)c(O)cc1c4c23` [Ellagic acid, Ellagic Acid], the half-maximal inhibitory concentration (IC50) in the series on U-87 MG cells [1] (48 h treatment, read-out: IC50 (cytotoxicity)) was 91.2 µM. Besides, on hGSTA4-4, the 50% inhibitory concentration (IC50) was 0.44 ± 0.01 µM, the “Enzyme Inhibition (%)” value was 95.1% and the inhibition at 100 µM was 95%.
As for `CC1=C(C=O)C(C)(C)CC=C1` [Safranal], the inhibition at 100 µM on hGSTA4-4 was found to be 21.8%.
Turning to `COc1cc(/C=C/C(=O)CC(=O)/C=C/c2ccc(O)c(OC)c2)ccc1O` [Curcumin], the inhibition at 100 µM at hGSTA4-4 is 80.9%.
For `O=C1c2c(O)cc(O)cc2O[C@H](c2ccc(O)c(O)c2)[C@H]1O` [Taxifolin hydrate], at hGSTA4-4, the “Enzyme Inhibition (%)” value amounted to 40.37% and the inhibition at 100 µM turned out to be 40%.
Regarding `COc1ccc(/C=C2\CCC/C(=C\c3ccc(OC)cc3)C2=O)cc1` [DM46], the inhibition at 100 µM at hGSTA4-4 was 64.9%.
Consider `Oc1ccc(/C=C/c2cc(O)cc(O)c2)cc1` [Resveratrol], for which, at hGSTA4-4, the “Enzyme Inhibition (%)” value turned out to be 8.87% and the inhibition at 100 µM is 8.9%.
With `O=C(O)/C=C/c1ccc(O)cc1` [Coumaric Acid], the inhibition at 100 µM at hGSTA4-4 is 27.3%.
In the case of `COc1cc(/C=C2\CCC/C(=C\c3ccc(O)c(OC)c3)C2=O)ccc1O` [DM100], on hGSTA4-4, half-maximal inhibition (IC50) required 16.9 ± 0.4 µM, the “Enzyme Inhibition (%)” value turned out to be 95.1% and the inhibition at 100 µM is greater than 90%.
Regarding `COc1ccc(/C=C/C(=O)/C=C/c2ccc(OC)c(OC)c2)cc1OC` [DM95], the inhibition at 100 µM on hGSTA4-4 amounted to 54.8%.
Regarding `O=C(/C=C/c1ccc(O)cc1)/C=C/c1ccc(O)cc1` [DM96], at hGSTA4-4, the “Enzyme Inhibition (%)” value is listed as 81.8% and the inhibition at 100 µM is greater than 90%.
For the compound `O=C1/C(=C/c2ccc(F)cc2)CCC/C1=C\c1ccc(F)cc1` [DM62], the inhibition at 100 µM on hGSTA4-4 came out at 74.9%.
`Cn1nnc2c(C(N)=O)ncn2c1=O` [TMZ, temozolomide]: the IC50 with U-87 MG cells [1] (48 h, interquartile range, read-out: IQR of IC50) was 92 to 590 µM; with U-87 MG cells [1] (48 h, read-out: median IC50) it was 223 µM. For the same compound, in the series on U-251 MG cells [2] (48 h, TMZ alone at 150 μM), the cell survival is recorded as greater than 85%.
As to `O=C(/C=C/c1ccc(O)c(O)c1)/C=C/c1ccc(O)c(O)c1` [DM148], the IC50 in the series on U-87 MG cells [3] worked out at 91.1 ± 5.64 µM; in the series with U-251 MG cells [5] it was 89.2 ± 3.41 µM. The values for the IC50 at 48 h in series [4] and in series [6] were 91.1 µM and 89.2 µM, respectively. The cell survival with U-251 MG cells [2] (48 h, compound alone at 10 μM) was greater than 85%. Further, the “change of cell survival in combination with TMZ” value in the series with U-251 MG cells [2] (compound 10 μM + TMZ 150 μM, added together or 3 or 6 h pre-incubation, 48 h) is given as “did not result in any dramatic changes”. Besides, at hGSTA4-4, the inhibition at 100 µM was determined as 4.6%.
On to `OC[C@H]1O[C@@H](Oc2cc(O)cc(/C=C/c3ccc(O)cc3)c2)[C@H](O)[C@@H](O)[C@@H]1O` [Polydatin], for which, on hGSTA4-4, the inhibition at 100 µM is 32.3%.
As for `O=C1/C(=C/c2ccc(O)c(O)c2)CCC/C1=C\c1ccc(O)c(O)c1` [DM151], the half-inhibitory concentration (IC50) was determined as 18.9 ± 5.81 µM with U-87 MG cells [3] and 25.6 ± 4.83 µM in the series with U-251 MG cells [5]. Further, the IC50 at 48 h in series [4] was 18.9 µM; in series [6], 25.5 µM. For the same compound, the “cell survival in combination with TMZ” value with U-251 MG cells [2] (3 h pretreatment with compound 10 μM, then TMZ 150 μM 48 h) is 45%; with U-251 MG cells [2] (6 h pretreatment with compound 10 μM, then TMZ 150 μM 48 h) it was “approximately 35%”; with U-251 MG cells [2] (compound 10 μM + TMZ 150 μM added together, 48 h), 55%. Further, the cell survival in the series on U-251 MG cells [2] (48 h, compound alone at 10 μM) is greater than 85%. For the same compound, the inhibition constant (Ki) – broadly, a measure of affinity in units of concentration, obtained from inhibition or displacement – at hGSTP1-1 (hGSTP1-1, CDNB substrate) was 9.55 µM; on hGSTP1-1 (hGSTP1-1, variable substrate GSH), 5.79 µM. In the series with hGSTP1-1 (hGSTP1-1, both GSH and CDNB substrates), the type of inhibition entry is recorded as “purely non-competitive”.
`O=c1c(O)c(-c2ccc(O)c(O)c2)oc2cc(O)cc(O)c12` [Quercetin]: the inhibition at 100 µM at hGSTA4-4 worked out at 84.7%.
Still for that read-out and setting: the result for `O=C1C[C@@H](c2ccc(O)cc2)Oc2cc(O)cc(O)c21` [Naringenin] reads 28.5%; that for `O=C(O)c1cc(O)c(O)c(O)c1` [Gallic acid], 20.8%.
Still for that read-out and setting: for `O=C(O[C@@H]1Cc2c(O)cc(O)cc2O[C@@H]1c1cc(O)c(O)c(O)c1)c1cc(O)c(O)c(O)c1` [Epigallocatechin gallate] the value was 86.4%.
